Source: publication PMC4502315, “High Potency of a Novel Resveratrol Derivative, 3,3′,4,4′-Tetrahydroxy-trans-stilbene, against Ovarian Cancer Is Associated with an Oxidative Stress-Mediated Imbalance between DNA Damage Accumulation and Repair” (Oxidative Medicine and Cellular Longevity, 2015)

Columns and labels:
SKOV-3 cells = test: SA-β-Gal activity (senescence), SKOV-3; format: cell-based, human; settings: 24 h, 10, 50, 100 μM tested
Experimental: (§1) The activity of SA-β-Gal in the cell extracts was quantified by measuring the rate of conversion of 4-methylumbelliferyl-β-D-galactopyranoside to 4-methylumbelliferone, as described in [19]. In order to visualize expression of the enzyme in the cancer cell cytoplasm, cytochemical staining for SA-β-Gal was performed according to Dimri et al..

HPMCs [1] = test: MTT viability assay, HPMCs; format: cell-based, human; settings: 24 h; for IC50: Homo sapiens, CalcuSyn; for concentration up to which viability was maintained: cytotoxicity tests (MTT and LDH release)
Experimental: (§2) Cell viability was assessed with the MTT test and with lactate dehydrogenase (LDH) release assay. As per the MTT method, normal and cancer cells were seeded into 96-well plates at high density and allowed to attach overnight. Then they were incubated in a medium containing 1.25 mg/mL of the MTT salt [3-(4,5-dimethylthiazol-2-yl)-2,5-diphenyltetrazolium bromide] for 24 h at 37°C. The generated formazan was solubilized with 20% sodium dodecyl sulphate and 50% N,N-dimethylformamide. Absorbance of the converted dye was recorded at 595 nm with a reference wavelength of 690 nm.
(§3) In order to examine the effect of 3,3′,4,4′-THS on the viability of ovarian cancer cells and to compare its activity with RVT, subconfluent cultures of A2780, OVCAR-3, and SKOV-3 cells were subjected to a wide range of stilbene concentrations (0–500 μM) for 24 h; then MTT and LDH release assays were performed.

HOSE cells = test: Apoptosis (Hoechst 33258), HOSE cells; format: cell-based, human; settings: 24 h, percentage of control cells
Experimental: (§4) Identification of apoptosis was based on the presence of DNA condensation in cells stained with a fluorescent dye, Hoechst 33258 (Molecular Probes, Eugene, OR). Cells were grown on Lab-Tek Chamber Slides (Nunc, Roskilde, Denmark), fixed with 4% formaldehyde for 10 min and washed twice with PBS. Then the cells were incubated with Hoechst 33258 (0.1 μg/mL) for 5 min in the dark. After washing with PBS, stained nuclei were observed and counted under a Zeiss Axio Observer D1 fluorescence microscope (Carl Zeiss, Jena, Germany). The activity of caspases 3, 8, and 9 was quantified in the cell lysates using specific colorimetric kits (Abcam, Cambridge, UK) according to the manufacturer's instructions.

[2] = tested on: ovarian cancer cells (A2780, OVCAR-3, SKOV-3); test: Efficiency of 8-OH-dG repair after 24-h recovery, ovarian cancer cells; format: cell-based, human; settings: all three cancer cell lines; 24-h stilbene exposure then 24-h recovery
Experimental: (§5) Oxidative DNA damage was assessed by measuring the 8-OH-dG concentration with a competitive immunoassay (Cell Biolabs Inc.), as per manufacturer's instructions. The efficiency of 8-OH-dG repair was estimated after cell recovery for 24 h in standard growth medium. In order to examine the activity of DNA glycosylase I, reverse transcription PCR was performed. RNA extraction was carried out using the RNA Bee (Tel-Test, Friendswood, Texas, USA) and purified according to the manufacturer's protocol. One microgram of RNA was reverse transcribed into cDNA with random hexamer primers, and cDNA was subjected to PCR. The profile of the replication cycles was denaturation at 94°C for 50 s, annealing at 58°C for 50 s, and polymerization at 72°C for 1 min. In each reaction, the expression of glyceraldehyde-3-phosphate dehydrogenase (GAPDH) served as the internal control. The primers used for PCR were as follows: hOGG1 forward, 5′-[…]-3′; hOGG1 reverse, 5′-TAGCCCGCCCTGTTCTTC-3′ designed to amplify a 551-bp region; GAPDH forward, 5′-CCATGGAGAAGGCTGGGG-3′; and GAPDH reverse 5′-[…]-3′ designed to amplify a 194-bp region (total number of cycles: 28). The PCR products were separated on 3% agarose gels stained with ethidium bromide and then visualized.
The cancer cells were treated with RVT and 3,3′,4,4′-THS to cause DNA injury; then they were washed and kept in standard growth medium to recover.

HPMCs [3] = test: LDH release assay, HPMCs; format: cell-based, human; settings: Homo sapiens, 24 h, CalcuSyn
A2780 cells [4] = test: SA-β-Gal activity (senescence), A2780; format: cell-based, human; settings: 24 h, 10, 50, 100 μM tested
Experimental: as §1

[5] = tested on: superoxide dismutase (SOD); test: SOD activity in cell lysates, HOSE cells; format: cell-based, human; settings: 24 h, percentage of control cells
Experimental: (§6) Total activity of superoxide dismutase (SOD) was measured in cell lysates with a commercially available kit (R&D Systems Europe, Abingdon, UK), while the activity of catalase (CAT) was estimated by using the OxiSelect Catalase Activity Assay Kit (Cell Biolabs Inc., San Diego, CA, USA). Both assays were performed according to the manufacturer's instructions.

A2780 cells [6] = test: Oxidative DNA damage (8-OH-dG immunoassay), A2780; format: cell-based, human; settings: 24 h, 10, 50, 100 μM tested
Experimental: as §5

A2780 [7] = test: LDH release assay, A2780; format: cell-based; settings: Homo sapiens, 24 h; for IC50: CalcuSyn
Experimental: (§7) As per LDH release, the measurements were performed using the commercially available Pierce LDH Cytotoxicity Assay Kit (Pierce Biotechnology, Rockford, IL, USA). In this assay, cells with damaged plasma membranes release LDH into the culture environment; then the enzyme catalyses the conversion of lactate to pyruvate, which is accompanied by a reduction of NAD^+ to NADH. Afterwards, diaphorase uses NADH to reduce a tetrazolium salt to a formazan whose level is proportional to LDH activity. The absorbance emitted by the formazan was monitored at 490 nm with a reference wavelength of 680 nm.
as §3

HPMCs [8] = test: Apoptosis (Hoechst 33258), HPMCs; format: cell-based, human; settings: 24 h, percentage of control cells
Experimental: as §4

HPMCs [9] = test: SA-β-Gal activity (senescence), HPMCs; format: cell-based, human; settings: 24 h, percentage of control cells
Experimental: as §1

A2780 cells [10] = test: ROS production (H2DCFDA), A2780; format: cell-based, human; settings: 24 h, 10, 50, 100 μM tested
Experimental: ROS production was assessed in cells probed with a fluorescent dye, 2′,7′-dichlorodihydrofluorescein diacetate (H2DCFDA; 5 μM) (Molecular Probes, Eugene, USA) for 45 min at 37°C. Fluorescence intensity in cell lysates was monitored in a Victor2 spectrofluorometer with excitation at 485 nm and emission at 535 nm.

OVCAR-3 = test: LDH release assay, OVCAR-3; format: cell-based; settings: Homo sapiens, 24 h; for IC50: CalcuSyn
Experimental: as §7, §3

[11] = tested on: superoxide dismutase (SOD); test: SOD activity in cell lysates, A2780; format: cell-based, human; settings: 24 h, 10, 50, 100 μM tested
Experimental: as §6

A2780 [12] = test: MTT viability assay, A2780; format: cell-based; settings: Homo sapiens, 24 h
Experimental: as §2, §3

[13] = CalcuSyn, read-out: IC50, MTT assay
[14] = 10 μM, percentage of control cells
[15] = 50 μM, percentage of control cells
[16] = 100 μM, percentage of control cells

Row | IC50 (HPMCs [3]) [µM] | IC50 (A2780 [7]) [µM] | Structure (SMILES) | SA-β-Gal activity (senescence), effect in words (SKOV-3 cells) | IC50 (HPMCs [1]) [µM] | concentration up to which viability was maintained (HPMCs [1]) | Apoptosis (HOSE cells; 10 μM) [%] | Apoptosis (HOSE cells; 50 μM) [%] | Apoptosis (HOSE cells; 100 μM) [%] | 8-OH-dG level after 24-h recovery in standard growth medium, in words [2] | SA-β-Gal activity (senescence), effect in words (A2780 cells [4]) | SOD ([5]; 10 μM) | SOD ([5]; 50 μM) | SOD ([5]; 100 μM) | concentration of 8-OH-dG (oxidative DNA damage), effect in words (A2780 cells [6]) | Apoptosis (HPMCs [8]; 10 μM) [%] | Apoptosis (HPMCs [8]; 50 μM) [%] | Apoptosis (HPMCs [8]; 100 μM) [%] | SA-β-Gal (HPMCs [9]; 10 μM) | SA-β-Gal (HPMCs [9]; 50 μM) [%] | SA-β-Gal (HPMCs [9]; 100 μM) [%] | other results
1 | 495 | 65 | Oc1ccc(/C=C/c2cc(O)cc(O)c2)cc1 [RVT, 3,4′,5-trihydroxy-trans-stilbene, reference compound] | cellular senescence was elicited | 465 | up to 300 μM | 99 ± 2 | 101 ± 2 | 102 ± 3 | returned to basal values within 24 h | did not change | 111 ± 3^∗ % | 112 ± 3^∗ % | 121 ± 4^∗ % | induced DNA injury in A2780 and SKOV-3 at 50 and 100 μM | 101 ± 1 | 101 ± 1 | 98 ± 3 | 100 ± 2% | 102 ± 4 | 100 ± 1 | generation of ROS, effect in words (A2780 cells [10]): (at 50 and 100 μM) inhibited the production of ROS; IC50 (OVCAR-3): 525 µM; SOD activity, effect in words [11]: upregulated activity of the enzyme; IC50 (A2780 [12]; [13]): 48 µM
2 | 498 | 6 | Oc1ccc(/C=C/c2ccc(O)c(O)c2)cc1O [3,3′,4,4′-THS, 3,3′,4,4′-tetrahydroxy-trans-stilbene] | significantly greater than those of RVT at each concentration | 496 | up to 300 μM | 101 ± 1 | 100 ± 2 | 102 ± 2 | still markedly higher than in the unstimulated cells | increased SA-β-Gal at each dose, reaching the highest activity at as low a dose as 10 μM | 122 ± 1^∗# % | 141 ± 5^∗# % | 136 ± 2^∗# % | only concentrations of 50 and 100 μM were effective | 98 ± 2 | 102 ± 2 | 100 ± 4 | 76 ± 3^∗# % | 104 ± 4 | 99 ± 3 | viability at 10 µM (A2780 [7]; [14]): 42 ± 3%; viability at 50 µM (A2780 [7]; [15]): 26 ± 3%; viability at 100 µM (A2780 [7]; [16]): 22 ± 3%; generation of ROS, effect in words (A2780 cells [10]): markedly upregulated the generation of ROS; viability at 10 µM (OVCAR-3; [14]): 62 ± 12%; viability at 50 µM (OVCAR-3; [15]): 53 ± 3%; viability at 100 µM (OVCAR-3; [16]): 46 ± 3%; IC50 (OVCAR-3): 85 µM; SOD activity, effect in words [11]: increased SOD at 10 μM and decreased the activity of the enzyme at 50 and 100 μM; viability at 10 µM (A2780 [12]; [14]): 20 ± 3%; viability at 50 µM (A2780 [12]; [15]): 14 ± 3%; viability at 100 µM (A2780 [12]; [16]): 13 ± 3%; IC50 (A2780 [12]; [13]): 4 µM; IC50 (A2780 [12]; read-out: IC50 (range over MTT and LDH release assays)): 4 to 6 µM
